Laboratory results taken from US11208412B2 (DAEGU-GYEONGBUK MEDICAL INNOVATION FOUNDATION, priority 2017, dated 2021).

Columns and labels:
Assay in all cases: Kinase selectivity, DiscoverX scanMAX Kinase assay panel (% control)
Format in all cases: binding
[1] = biological target: T1, kinases of the scanMAX Kinase assay panel (Homo sapiens, UniProt Q9Y2I7); details: PIKFYVE; 1 uM
T1 construct: purchased DiscoverX Co. (contract measurement) scanMAX Kinase assay panel
In short: (§1)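 Percent of control computed as (compound − positive control)/(negative control − positive control) × 100, DMSO defining 100% and positive control 0%. Each panel kinase exposed to 1 uM compound; values under 35% taken to mean the compound acts on that kinase.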

[2] = biological target: T2, kinases of the scanMAX Kinase assay panel (Homo sapiens, UniProt Q9BWU1); details: CDK11; 1 uM
T2 construct: purchased DiscoverX Co. (contract measurement) scanMAX Kinase assay panel
In short: as §1

[3] = biological target: T3, kinases of the scanMAX Kinase assay panel (Homo sapiens, UniProt P42336, E542K); details: PIK3CA(E542K); 1 uM
T3 construct: purchased DiscoverX Co. (contract measurement) scanMAX Kinase assay panel
In short: as §1

[4] = biological target: T4, kinases of the scanMAX Kinase assay panel (Homo sapiens, UniProt Q16288); details: kinase TRKC; 1 uM in DMSO
T4 construct: purchased DiscoverX Co. (contract measurement) scanMAX Kinase assay panel
In short: as §1

[5] = biological target: T5, kinases of the scanMAX Kinase assay panel (Homo sapiens, UniProt P27037); details: ACVR2A; 1 uM
T5 construct: purchased DiscoverX Co. (contract measurement) scanMAX Kinase assay panel
In short: as §1

[6] = biological target: T6, kinases of the scanMAX Kinase assay panel (Homo sapiens, UniProt P36896); details: ACVR1B; 1 uM
T6 construct: purchased DiscoverX Co. (contract measurement) scanMAX Kinase assay panel
T6 sequence (P36896 24-505): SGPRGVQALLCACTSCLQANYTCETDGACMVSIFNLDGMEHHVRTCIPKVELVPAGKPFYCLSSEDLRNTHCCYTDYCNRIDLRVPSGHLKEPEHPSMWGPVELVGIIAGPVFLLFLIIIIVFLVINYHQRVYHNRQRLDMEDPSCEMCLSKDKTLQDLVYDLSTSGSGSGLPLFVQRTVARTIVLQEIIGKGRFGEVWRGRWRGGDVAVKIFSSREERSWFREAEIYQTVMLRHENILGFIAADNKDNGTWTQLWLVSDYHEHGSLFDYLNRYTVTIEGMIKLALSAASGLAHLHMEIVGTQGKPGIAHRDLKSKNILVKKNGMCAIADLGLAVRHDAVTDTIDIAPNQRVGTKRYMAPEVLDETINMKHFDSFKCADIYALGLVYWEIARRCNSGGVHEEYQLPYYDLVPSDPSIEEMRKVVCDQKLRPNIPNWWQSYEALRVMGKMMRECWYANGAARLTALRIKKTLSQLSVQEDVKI
In short: as §1

[7] = biological target: T7, kinases of the scanMAX Kinase assay panel (Homo sapiens, UniProt Q9BXA7); details: kinase TSSK1B; 1 uM in DMSO
T7 construct: purchased DiscoverX Co. (contract measurement) scanMAX Kinase assay panel
T7 sequence (Q9BXA7 1-367): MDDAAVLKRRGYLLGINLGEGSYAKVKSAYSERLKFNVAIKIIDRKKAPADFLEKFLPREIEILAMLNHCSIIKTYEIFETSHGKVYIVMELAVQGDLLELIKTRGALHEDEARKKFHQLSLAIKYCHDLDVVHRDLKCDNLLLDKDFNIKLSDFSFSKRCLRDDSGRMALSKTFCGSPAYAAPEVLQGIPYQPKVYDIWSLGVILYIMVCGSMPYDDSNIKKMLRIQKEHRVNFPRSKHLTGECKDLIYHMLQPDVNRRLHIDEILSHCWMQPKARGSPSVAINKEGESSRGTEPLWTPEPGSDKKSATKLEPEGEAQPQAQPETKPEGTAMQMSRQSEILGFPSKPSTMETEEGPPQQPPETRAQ
In short: as §1

[8] = biological target: T8, kinases of the scanMAX Kinase assay panel (Homo sapiens, UniProt Q86Z02); details: HIPK1; 1 uM
T8 construct: purchased DiscoverX Co. (contract measurement) scanMAX Kinase assay panel
In short: as §1

[9] = biological target: T9, kinases of the scanMAX Kinase assay panel (Homo sapiens, UniProt P48736); details: PIK3CG; 1 uM
T9 construct: purchased DiscoverX Co. (contract measurement) scanMAX Kinase assay panel
In short: as §1

[10] = biological target: T10, kinases of the scanMAX Kinase assay panel (Homo sapiens, UniProt P29322); details: EPHA8; 1 uM
T10 construct: purchased DiscoverX Co. (contract measurement) scanMAX Kinase assay panel
T10 sequence (P29322 28-1005): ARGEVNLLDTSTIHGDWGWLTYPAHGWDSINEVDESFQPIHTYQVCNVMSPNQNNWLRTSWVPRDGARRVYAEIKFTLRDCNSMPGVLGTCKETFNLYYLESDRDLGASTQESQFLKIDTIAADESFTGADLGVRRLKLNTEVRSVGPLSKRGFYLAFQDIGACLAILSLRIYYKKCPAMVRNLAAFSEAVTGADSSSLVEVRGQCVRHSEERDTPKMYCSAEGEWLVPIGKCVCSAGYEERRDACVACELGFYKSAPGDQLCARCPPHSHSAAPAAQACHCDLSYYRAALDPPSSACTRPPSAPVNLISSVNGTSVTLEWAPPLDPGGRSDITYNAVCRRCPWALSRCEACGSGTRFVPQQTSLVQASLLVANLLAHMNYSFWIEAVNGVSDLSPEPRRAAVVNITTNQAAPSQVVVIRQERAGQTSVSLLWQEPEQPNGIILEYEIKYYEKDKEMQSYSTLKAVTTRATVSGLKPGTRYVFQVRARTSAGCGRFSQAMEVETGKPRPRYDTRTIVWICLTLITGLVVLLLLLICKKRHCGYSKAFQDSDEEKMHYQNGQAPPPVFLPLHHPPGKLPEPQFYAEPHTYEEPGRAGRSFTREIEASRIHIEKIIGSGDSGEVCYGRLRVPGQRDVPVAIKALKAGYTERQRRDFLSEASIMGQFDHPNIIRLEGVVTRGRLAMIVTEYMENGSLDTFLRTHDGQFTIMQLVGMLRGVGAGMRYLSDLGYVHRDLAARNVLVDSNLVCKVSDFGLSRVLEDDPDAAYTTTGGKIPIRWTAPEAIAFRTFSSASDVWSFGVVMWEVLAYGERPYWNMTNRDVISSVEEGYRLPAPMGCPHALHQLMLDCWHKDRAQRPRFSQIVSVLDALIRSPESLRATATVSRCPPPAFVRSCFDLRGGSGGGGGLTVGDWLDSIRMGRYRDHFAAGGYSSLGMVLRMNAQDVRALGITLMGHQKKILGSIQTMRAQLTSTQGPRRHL
In short: as §1

[11] = biological target: T11, kinases of the scanMAX Kinase assay panel (Homo sapiens, UniProt P78362); details: kinase SRPK2; 1 uM in DMSO
T11 construct: purchased DiscoverX Co. (contract measurement) scanMAX Kinase assay panel
In short: as §1

T3 sequence (P42336 whole entry E542K): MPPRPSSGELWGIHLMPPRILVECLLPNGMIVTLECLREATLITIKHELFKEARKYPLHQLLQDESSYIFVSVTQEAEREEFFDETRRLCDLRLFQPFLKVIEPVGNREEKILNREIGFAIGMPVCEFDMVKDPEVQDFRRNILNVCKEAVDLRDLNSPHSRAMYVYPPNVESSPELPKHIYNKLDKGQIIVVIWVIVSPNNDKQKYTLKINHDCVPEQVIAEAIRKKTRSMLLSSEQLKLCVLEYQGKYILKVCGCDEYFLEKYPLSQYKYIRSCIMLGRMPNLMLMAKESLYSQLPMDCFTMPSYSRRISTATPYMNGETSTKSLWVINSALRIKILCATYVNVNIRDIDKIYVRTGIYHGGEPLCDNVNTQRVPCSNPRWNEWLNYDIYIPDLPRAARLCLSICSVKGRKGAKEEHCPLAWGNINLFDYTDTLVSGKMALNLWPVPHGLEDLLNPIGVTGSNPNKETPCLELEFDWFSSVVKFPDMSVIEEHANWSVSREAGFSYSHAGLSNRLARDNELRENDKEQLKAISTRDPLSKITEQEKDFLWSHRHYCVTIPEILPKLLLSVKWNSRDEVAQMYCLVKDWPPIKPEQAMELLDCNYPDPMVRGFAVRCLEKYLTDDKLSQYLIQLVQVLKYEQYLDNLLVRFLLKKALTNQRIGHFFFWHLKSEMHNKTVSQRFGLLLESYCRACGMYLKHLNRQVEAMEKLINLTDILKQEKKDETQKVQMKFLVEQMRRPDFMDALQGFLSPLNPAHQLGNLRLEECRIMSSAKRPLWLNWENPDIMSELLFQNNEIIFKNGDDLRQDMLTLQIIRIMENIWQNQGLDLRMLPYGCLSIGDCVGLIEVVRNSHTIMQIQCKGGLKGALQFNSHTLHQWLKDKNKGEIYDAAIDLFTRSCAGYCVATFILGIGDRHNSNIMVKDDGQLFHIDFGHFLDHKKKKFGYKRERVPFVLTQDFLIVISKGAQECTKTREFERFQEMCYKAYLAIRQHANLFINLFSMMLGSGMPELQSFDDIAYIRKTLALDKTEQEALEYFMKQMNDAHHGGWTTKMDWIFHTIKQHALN
T1 sequence (Q9Y2I7 whole entry): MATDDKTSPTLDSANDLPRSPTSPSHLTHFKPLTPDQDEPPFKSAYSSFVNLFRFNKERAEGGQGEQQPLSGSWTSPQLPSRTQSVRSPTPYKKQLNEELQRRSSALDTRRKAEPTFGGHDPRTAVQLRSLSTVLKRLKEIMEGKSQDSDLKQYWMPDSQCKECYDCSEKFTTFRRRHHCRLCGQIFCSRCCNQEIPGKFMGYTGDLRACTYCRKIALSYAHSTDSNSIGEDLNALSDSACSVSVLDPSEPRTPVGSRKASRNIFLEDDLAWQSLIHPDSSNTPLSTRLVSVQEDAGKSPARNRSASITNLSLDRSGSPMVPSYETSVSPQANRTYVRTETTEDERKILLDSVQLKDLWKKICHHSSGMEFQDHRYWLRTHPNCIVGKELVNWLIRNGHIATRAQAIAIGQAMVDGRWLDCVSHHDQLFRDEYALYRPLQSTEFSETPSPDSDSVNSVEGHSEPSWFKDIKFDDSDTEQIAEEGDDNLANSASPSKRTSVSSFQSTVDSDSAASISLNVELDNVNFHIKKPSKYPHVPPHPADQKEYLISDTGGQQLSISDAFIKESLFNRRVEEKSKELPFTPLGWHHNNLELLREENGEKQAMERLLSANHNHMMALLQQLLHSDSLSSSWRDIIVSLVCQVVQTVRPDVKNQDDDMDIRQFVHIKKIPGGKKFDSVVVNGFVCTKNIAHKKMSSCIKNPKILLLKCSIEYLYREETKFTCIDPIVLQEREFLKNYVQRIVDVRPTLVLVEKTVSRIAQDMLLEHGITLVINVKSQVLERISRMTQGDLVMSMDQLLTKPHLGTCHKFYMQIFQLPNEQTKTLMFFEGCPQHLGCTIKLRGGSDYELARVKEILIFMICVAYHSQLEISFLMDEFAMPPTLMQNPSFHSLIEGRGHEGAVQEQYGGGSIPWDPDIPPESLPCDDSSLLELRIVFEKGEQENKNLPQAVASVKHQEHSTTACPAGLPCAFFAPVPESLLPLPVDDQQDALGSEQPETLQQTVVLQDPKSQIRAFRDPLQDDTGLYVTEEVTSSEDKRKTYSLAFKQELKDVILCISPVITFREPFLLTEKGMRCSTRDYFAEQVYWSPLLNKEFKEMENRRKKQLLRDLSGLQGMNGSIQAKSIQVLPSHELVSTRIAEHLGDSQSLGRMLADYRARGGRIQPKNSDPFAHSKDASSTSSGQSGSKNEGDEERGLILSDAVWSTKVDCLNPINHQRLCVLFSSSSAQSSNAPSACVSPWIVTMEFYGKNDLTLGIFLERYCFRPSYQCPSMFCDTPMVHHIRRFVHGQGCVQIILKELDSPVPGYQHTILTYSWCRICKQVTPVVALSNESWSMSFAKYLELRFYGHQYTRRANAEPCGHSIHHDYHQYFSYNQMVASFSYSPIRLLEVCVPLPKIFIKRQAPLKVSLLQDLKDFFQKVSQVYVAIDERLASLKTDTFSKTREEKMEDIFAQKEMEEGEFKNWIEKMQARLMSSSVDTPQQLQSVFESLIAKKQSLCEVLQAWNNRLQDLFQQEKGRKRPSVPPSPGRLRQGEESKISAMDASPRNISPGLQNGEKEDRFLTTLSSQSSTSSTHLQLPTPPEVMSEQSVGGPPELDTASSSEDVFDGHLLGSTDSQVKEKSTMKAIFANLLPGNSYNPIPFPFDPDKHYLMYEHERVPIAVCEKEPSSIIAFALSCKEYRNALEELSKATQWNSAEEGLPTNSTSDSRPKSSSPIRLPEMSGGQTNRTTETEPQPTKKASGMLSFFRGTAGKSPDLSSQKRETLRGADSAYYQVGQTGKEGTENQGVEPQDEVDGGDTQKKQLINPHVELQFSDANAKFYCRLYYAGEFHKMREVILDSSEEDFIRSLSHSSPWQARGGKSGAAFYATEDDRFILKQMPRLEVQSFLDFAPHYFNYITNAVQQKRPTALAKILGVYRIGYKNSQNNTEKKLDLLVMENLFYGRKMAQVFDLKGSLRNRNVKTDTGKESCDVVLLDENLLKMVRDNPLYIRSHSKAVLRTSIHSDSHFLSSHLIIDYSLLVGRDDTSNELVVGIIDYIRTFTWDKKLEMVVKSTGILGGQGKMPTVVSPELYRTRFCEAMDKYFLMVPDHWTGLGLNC
T4 sequence (Q16288 32-839): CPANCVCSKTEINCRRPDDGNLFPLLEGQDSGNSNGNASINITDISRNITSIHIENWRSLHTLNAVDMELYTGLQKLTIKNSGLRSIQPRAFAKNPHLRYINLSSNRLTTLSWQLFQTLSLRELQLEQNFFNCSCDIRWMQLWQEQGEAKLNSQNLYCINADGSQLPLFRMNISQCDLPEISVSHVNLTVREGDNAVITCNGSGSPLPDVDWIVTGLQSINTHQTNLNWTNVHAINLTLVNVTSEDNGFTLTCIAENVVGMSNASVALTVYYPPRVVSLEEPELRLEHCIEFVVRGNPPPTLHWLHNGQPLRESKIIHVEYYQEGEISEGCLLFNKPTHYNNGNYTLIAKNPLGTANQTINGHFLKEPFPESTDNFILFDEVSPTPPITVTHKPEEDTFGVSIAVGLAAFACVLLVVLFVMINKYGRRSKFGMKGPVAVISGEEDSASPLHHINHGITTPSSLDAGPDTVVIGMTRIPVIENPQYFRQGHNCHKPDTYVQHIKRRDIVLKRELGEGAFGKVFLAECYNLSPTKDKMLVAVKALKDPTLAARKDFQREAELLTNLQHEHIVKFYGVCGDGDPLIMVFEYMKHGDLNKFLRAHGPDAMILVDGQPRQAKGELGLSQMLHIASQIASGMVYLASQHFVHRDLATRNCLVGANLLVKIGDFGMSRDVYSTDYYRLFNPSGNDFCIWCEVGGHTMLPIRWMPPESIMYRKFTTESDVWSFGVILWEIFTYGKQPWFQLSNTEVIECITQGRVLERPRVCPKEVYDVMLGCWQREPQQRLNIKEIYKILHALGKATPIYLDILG
T5 sequence (P27037 20-513): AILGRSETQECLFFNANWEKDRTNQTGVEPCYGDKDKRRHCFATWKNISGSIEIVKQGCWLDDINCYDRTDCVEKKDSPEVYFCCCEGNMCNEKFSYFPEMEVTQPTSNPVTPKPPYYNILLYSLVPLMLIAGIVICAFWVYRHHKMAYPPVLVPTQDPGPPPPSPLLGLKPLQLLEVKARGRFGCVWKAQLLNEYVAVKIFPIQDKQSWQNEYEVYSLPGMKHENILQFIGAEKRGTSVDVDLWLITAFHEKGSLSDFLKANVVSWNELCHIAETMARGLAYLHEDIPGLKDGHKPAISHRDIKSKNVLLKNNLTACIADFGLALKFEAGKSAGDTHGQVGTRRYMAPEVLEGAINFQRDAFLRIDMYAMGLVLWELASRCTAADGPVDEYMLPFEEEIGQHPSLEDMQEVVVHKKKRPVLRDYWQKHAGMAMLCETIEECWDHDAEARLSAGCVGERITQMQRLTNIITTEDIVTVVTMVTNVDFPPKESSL
T2 sequence (Q9BWU1 whole entry): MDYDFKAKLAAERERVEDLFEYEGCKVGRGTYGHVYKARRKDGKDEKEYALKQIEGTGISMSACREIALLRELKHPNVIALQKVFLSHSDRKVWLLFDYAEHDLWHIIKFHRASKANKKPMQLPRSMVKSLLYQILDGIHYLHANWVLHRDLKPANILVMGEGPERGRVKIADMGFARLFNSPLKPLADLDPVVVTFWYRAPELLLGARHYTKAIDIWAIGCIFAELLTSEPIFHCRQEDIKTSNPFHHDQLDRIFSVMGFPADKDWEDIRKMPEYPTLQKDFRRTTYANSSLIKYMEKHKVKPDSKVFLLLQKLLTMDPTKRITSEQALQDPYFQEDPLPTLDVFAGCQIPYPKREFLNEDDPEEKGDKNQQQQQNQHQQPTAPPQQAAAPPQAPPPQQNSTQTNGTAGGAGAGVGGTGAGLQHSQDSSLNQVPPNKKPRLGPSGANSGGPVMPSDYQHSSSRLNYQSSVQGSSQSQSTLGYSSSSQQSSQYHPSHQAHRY

SMILES	remaining binding at 1 µM [1]	remaining binding at 1 µM [2]	remaining binding at 1 µM [3]	remaining binding at 1 µM [4]	remaining binding at 1 µM [5]	remaining binding at 1 µM [6]	remaining binding at 1 µM [7]	remaining binding at 1 µM [8]	remaining binding at 1 µM [9]	remaining binding at 1 µM [10]	remaining binding at 1 µM [11]
CC1(Nc2nc(Nc3cnn([C@H]4CCN(C5COC5)C[C@@H]4F)c3Cl)nc3[nH]cc(C#N)c23)CC1 [Example 52, 2-((5-chloro-1-((3S,4S)-3-fluoro-1-(oxetane-3-yl)piperidine-4-yl)-1H-pyrazole-4-yl)amino)((1-methylcyclopropyl)amino)-7H-pyrrolo[2,3-d]pyrimidine-5-carbonitrile]	65%	100%	77%	30%	98%	92%	0.6%	18%	8.5%	86%	58%
CNc1nc(Nc2ccc(C(=O)N3CCOCC3)cc2OC)nc2[nH]cc(C#N)c12 [Example 1, 2-((2-methoxy-4-(morpholine-4-carbonyl)phenyl)amino)-4-(methylamino)-7H-pyrrolo[2,3-d]pyrimidine-5-carbonitrile]	73%	87%	74%	60%	100%	86%	22%	61%	76%	97%	100%
CCNc1nc(Nc2ccc(C(=O)N3CCC(N4CCOCC4)CC3)cc2OC)nc2[nH]cc(C(F)(F)F)c12 [Example 104, (4-((4-(ethylamino)-5-(trifluoromethyl)-7H-pyrrolo[2,3-d]pyrimidine-2-yl)amino)-3-methoxyphenyl)(4-morpholinopiperidine-1-yl)methanone]	100%	96%	83%	100%	100%	100%	0%	13%	87%	93%	74%
